Legend:
NK1 receptor = target: T1, NK1 receptor (Cavia porcellus, UniProt P30547); assay: Test for NK1 receptor antagonist: substance P concentration-response in isolated guinea pig ileum, Schild analysis; details: against substance P, 10 min pretreatment, method of Schild
T1 construct: from tissue; host or cells: isolated guinea pig ileum
Method: (1) Test for NK1 Receptor Antagonist
The method used was according to the method proposed by S. Dion et al.(Dion et al., Life Sciences 41(1987): 2269), to which minor modifications were made.
Guinea pigs were stunned by a blow on the head and were exsanguinated from the carotid artery and ilea were isolated. The ileum was mounted in an organ bath containing Tyrode's solution which was maintained at 32° C., and gased with 95% O2 and 5% CO2. The ileum was subjected to a resting tension of 1-gram and allowed to equilibrate for 20 minutes before the experiment was started. As a control, a concentration-response curve for substance P in the absence of any of test compounds was used. The NK1 receptor antagonist activity of each test compound was determined by a concentration-response curve obtained by pretreating at least three concentrations of the test compound for 10 minutes and subsequently applying substance P in a cumulative manner. The Kb values were determined according to the method of Schild and the results are shown in Table 1 (Schild Brit. J. Pharmacol. 14(1959): 49).
The composition of the Tyrode's solution was as follows: NaCl=136.9, KCl=2.7, CaCl2.2H2O=2.5, MgCl2.6H2O=1.0, NaH2PO4.2H2O=0.4, NaHCO3=11.9, glucose=11.1(mmol/L)

Guinea pigs = assay: Cystometry test on guinea pigs with cut spinal cord (effective bladder capacity); format: in vivo; details: guinea pig
Source text: (2) Cystometry Test on Guinea Pigs
The method used was according to the method proposed by J S. Peterson et al. (Peterson J S. et al., J. Pharmacol. Methods 21(1989): 231), to which minor modifications were made.
Guinea pigs were anesthetized with halothane and the tenth thoracic spinal cord was cut in each animal. Subsequently, both ureters were ligated and were cut on the kidney-side. Polyethylene catheters were inserted into the bladder to provide an injection pathway for physiological saline and a pathway for the measurement of intravesical pressure. Each animal was restricted in a Ballman cage and was left for more than 2 hours. Subsequently, room-temperature saline was injected through the bladder catheter into the bladder at a rate of 6 mL/hr to conduct a cystometry test. Once the effective bladder capacity was stabilized, a test compound was intravenously administered into the jugular vein. The effective bladder capacity is defined as the volume of saline injected from one urination to the next. The effect of each test compound was determined as the increase in the average bladder volume, which was determined based on the average bladder volume measured 30 minutes prior to the administration of the test compound and the average bladder volume measured every 30 minutes after the administration of the test compound.

T1 sequence (P30547 whole entry): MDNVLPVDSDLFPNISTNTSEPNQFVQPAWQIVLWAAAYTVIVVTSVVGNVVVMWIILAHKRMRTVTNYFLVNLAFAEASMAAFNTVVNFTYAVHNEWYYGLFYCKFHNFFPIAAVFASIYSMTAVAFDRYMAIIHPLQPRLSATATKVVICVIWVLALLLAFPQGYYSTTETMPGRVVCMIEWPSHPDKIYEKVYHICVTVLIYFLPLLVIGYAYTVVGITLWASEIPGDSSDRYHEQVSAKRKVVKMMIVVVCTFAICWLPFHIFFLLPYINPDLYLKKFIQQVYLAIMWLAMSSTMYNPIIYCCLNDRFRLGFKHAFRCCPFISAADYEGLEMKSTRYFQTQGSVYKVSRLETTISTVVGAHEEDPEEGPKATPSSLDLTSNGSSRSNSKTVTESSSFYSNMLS

| SMILES | Kb (NK1 receptor) [nM] | also measured |
| --- | --- | --- |
| Cc1ccccc1-c1nc(N2CCN(c3ncccn3)CC2)nc2c1C(=O)N(Cc1cc(C(F)(F)F)cc(C(F)(F)F)c1)CCCO2 [Example 14, 5-[3,5-bis(trifluoromethyl)benzyl]-7-(2-methylphenyl)-6-oxo-9-[4-(pyrimidine-2-yl)piperazine-1-yl]-2,3,4,5-tetrahydro-6H-pyrimido[4,5-b][1,5]oxazocine] | 0.798 | – |
| Cc1ccc(-c2c3n(c(=O)c4ncccc24)CC[C@@H](C)CN(Cc2cc(C(F)(F)F)cc(C(F)(F)F)c2)C3=O)cc1 [TAK-637, reference compound] | 0.269 | Increase in bladder capacity (%) (Guinea pigs; 0.3 mg/kg i.v.): 12.0%; Increase in bladder capacity (%) (Guinea pigs; 1 mg/kg i.v.): 23.8%; Increase in bladder capacity (%) (Guinea pigs; 3 mg/kg i.v.): 20.5% |
| CC(=O)NC1CCN(c2nc3c(c(-c4ccccc4C)n2)C(=O)N(Cc2cc(C(F)(F)F)cc(C(F)(F)F)c2)CCCO3)CC1 [Example 37, 9-[4-(acetylamino)piperidine-1-yl]-5-[3,5-bis(trifluoromethyl)benzyl]-7-(2-methylphenyl)-6-oxo-2,3,4,5-tetrahydro-6H-pyrimido[4,5-b][1,5]oxazocine] | 0.151 | – |
| CC(=O)NC1CCN(c2nc3c(c(-c4ccccc4C)n2)C(=O)N(Cc2cc(C(F)(F)F)cc(C(F)(F)F)c2)CCCO3)C1 (centres unmarked) [Example 27, 5-[3,5-bis(trifluoromethyl)benzyl]-9-[3-(acetylamino)pyrrolidine-1-yl]-7-(2-methylphenyl)-6-oxo-2,3,4,5-tetrahydro-6H-pyrimido[4,5-b][1,5]oxazocine] | 0.44 | – |
| Cc1ccccc1-c1nc(N2CCC(NS(C)(=O)=O)CC2)nc2c1C(=O)N(Cc1cc(C(F)(F)F)cc(C(F)(F)F)c1)CCCO2 [Example 38, 5-[3,5-bis(trifluoromethyl)benzyl]-9-[4-(methylsulfonylamino)piperidine-1-yl]-7-(2-methylphenyl)-6-oxo-2,3,4,5-tetrahydro-6H-pyrimido[4,5-b][1,5]oxazocine] | 0.214 | – |
| COc1ccccc1-c1nc(N2CCN(C(C)=O)CC2)nc2c1C(=O)N(Cc1cc(C(F)(F)F)cc(C(F)(F)F)c1)CCCO2 [Example 29, 9-(4-acetylpiperazine-1-yl)-5-[3,5-bis(trifluoromethyl)benzyl]-7-(2-methoxyphenyl)-6-oxo-2,3,4,5-tetrahydro-6H-pyrimido[4,5-b][1,5]oxazocine] | 0.1 | – |
| O=C1c2c(nc(N3CCC(N4CCCC4)CC3)nc2-c2ccc(F)cc2)OCCCN1Cc1cc(C(F)(F)F)cc(C(F)(F)F)c1 [Example 13, 5-[3,5-bis(trifluoromethyl)benzyl]-7-(4-fluorophenyl)-6-oxo-9-[4-(pyrrolidine-1-yl)piperidine-1-yl]-2,3,4,5-tetrahydro-6H-pyrimido[4,5-b][1,5]oxazocine] | 0.217 | – |
| Cc1ccccc1-c1nc(N2CCC(N(C)C)C2)nc2c1C(=O)N(Cc1cc(C(F)(F)F)cc(C(F)(F)F)c1)CCCO2 (centres unmarked) [Example 25, 5-[3,5-bis(trifluoromethyl)benzyl]-9-[3-(dimethylamino)pyrrolidine-1-yl]-7-(2-methylphenyl)-6-oxo-2,3,4,5-tetrahydro-6H-pyrimido[4,5-b][1,5]oxazocine] | 0.427 | – |
| Cc1ccccc1-c1nc(-n2ccnc2)nc2c1C(=O)N(Cc1cc(C(F)(F)F)cc(C(F)(F)F)c1)CCCO2 [Example 18, 5-[3,5-bis(trifluoromethyl)benzyl]-9-(imidazole-1-yl)-7-(2-methylphenyl)-6-oxo-2,3,4,5-tetrahydro-6H-pyrimido[4,5-b][1,5]oxazocine] | 0.459 | – |

More lines, main results first:

| Kb (NK1 receptor) [nM] | SMILES | also measured |
| --- | --- | --- |
| 0.398 | Cc1ccccc1-c1nc(N2CCCN(C)CC2)nc2c1C(=O)N(Cc1cc(C(F)(F)F)cc(C(F)(F)F)c1)CCCO2 [Example 26, 5-[3,5-bis(trifluoromethyl)benzyl]-9-(4-methylhomopiperazine-1-yl)-7-(2-methylphenyl)-6-oxo-2,3,4,5-tetrahydro-6H-pyrimido[4,5-b][1,5]oxazocine] | – |
| 0.0794 | Cc1ccccc1-c1nc(N2CCS(=O)(=O)CC2)nc2c1C(=O)N(Cc1cc(C(F)(F)F)cc(C(F)(F)F)c1)CCCO2 [Example 20, 5-[3,5-bis(trifluoromethyl)benzyl]-9-(1,1-dioxothiomorpholine-4-yl)-7-(2-methylphenyl)-6-oxo-2,3,4,5-tetrahydro-6H-pyrimido[4,5-b][1,5]oxazocine] | Increase in bladder capacity (%) (Guinea pigs; 0.3 mg/kg i.v.): 40.4% |
| 0.308 | CC(=O)N1CCCN(c2nc3c(c(-c4ccccc4C)n2)C(=O)N(Cc2cc(C(F)(F)F)cc(C(F)(F)F)c2)CCCO3)CC1 [Example 41, 9-(4-acetylhomopiperazine-1-yl)-5-[3,5-bis(trifluoromethyl)benzyl]-7-(2-methylphenyl)-6-oxo-2,3,4,5-tetrahydro-6H-pyrimido[4,5-b][1,5]oxazocine] | Increase in bladder capacity (%) (Guinea pigs; 0.3 mg/kg i.v.): 36.8% |
| 0.105 | CC(=O)N1CCN(c2nc3c(c(-c4ccccc4C)n2)C(=O)N(Cc2cc(C(F)(F)F)cc(C(F)(F)F)c2)CCCO3)CC1 [Example 16, 9-(4-acetylpiperazine-1-yl)-5-[3,5-bis(trifluoromethyl)benzyl]-7-(2-methylphenyl)-6-oxo-2,3,4,5-tetrahydro-6H-pyrimido[4,5-b][1,5]oxazocine] | Increase in bladder capacity (%) (Guinea pigs; 0.3 mg/kg i.v.): 59.4%; melting point: 160.5 to 163.5 °C |
| 0.00631 | Cc1ccccc1-c1nc(N2CCN(C)CC2)nc2c1C(=O)N(Cc1cc(C(F)(F)F)cc(C(F)(F)F)c1)CCCO2 [Example 44, 5-[3,5-bis(trifluoromethyl)benzyl]-7-(2-methylphenyl)-9-(4-methylpiperazine-1-yl)-6-oxo-2,3,4,5-tetrahydro-6H-pyrimido[4,5-b][1,5]oxazocine] | – |
| 0.294 | O=C1c2c(nc(N3CCOCC3)nc2-c2ccccc2F)OCCCN1Cc1cc(C(F)(F)F)cc(C(F)(F)F)c1 [Example 2, 5-[3,5-bis(trifluoromethyl)benzyl]-7-(2-fluorophenyl)-9-(morpholine-4-yl)-6-oxo-2,3,4,5-tetrahydro-6H-pyrimido[4,5-b][1,5]oxazocine] | – |
| 0.123 | COc1ccccc1-c1nc(N2CCS(=O)(=O)CC2)nc2c1C(=O)N(Cc1cc(C(F)(F)F)cc(C(F)(F)F)c1)CCCO2 [Example 43, 5-[3,5-bis(trifluoromethyl)benzyl]-9-(1,1-dioxothiomorpholine-4-yl)-7-(2-methoxyphenyl)-6-oxo-2,3,4,5-tetrahydro-6H-pyrimido[4,5-b][1,5]oxazocine] | – |

Reference: patent US6995153B2, “Fused bicyclic pyrimidine derivatives” (Kyorin Pharmaceutical. Co., Ltd., priority 2002, dated 2006)
